The NIST ThermoML archive (doi:10.1016/j.jct.2015.11.020)
Several values for one entry are separate records, joined by “and”; a condition that tells them apart may be missing. Equal values may be shown once. ± gives the expanded uncertainty stated by the source.

Experiment: mn = molality of the nth substance listed, in mol/kg
Conditions: 100 kPa, Liquid; for speed of sound: Frequency=3 MHz, Sing-around technique in a fixed-path interferometer; for mass density: Vibrating tube method

SMILES: C[C@@H](O)[C@H](N)C(=O)O [L-threonine] + O
- speed of sound (305.15 K, m1 = 0.09989): 1521 ± 1.5 m/s
- speed of sound (305.15 K, m1 = 0.1997): 1528 ± 1.5 m/s
- speed of sound (305.15 K, m1 = 0.2989): 1535 ± 1.6 m/s
- speed of sound (305.15 K, m1 = 0.3989): 1542.2 ± 1.6 m/s
- speed of sound (305.15 K, m1 = 0.5002): 1549.1 ± 1.7 m/s
- speed of sound (305.15 K, m1 = 0.5982): 1555.7 ± 1.7 m/s
- speed of sound (305.15 K, m1 = 0.6471): 1559 ± 1.7 m/s
- speed of sound (305.15 K, m1 = 0.7007): 1562.4 ± 1.8 m/s
- speed of sound (305.15 K, m1 = 0.7476): 1565.7 ± 1.9 m/s
- speed of sound (305.15 K, m1 = 0.7854): 1568.4 ± 1.9 m/s
- mass density (305.15 K, m1 = 0.09989): 999.283 ± 1 kg/m3
- mass density (305.15 K, m1 = 0.1997): 1003.52 ± 1 kg/m3
- mass density (305.15 K, m1 = 0.2989): 1007.74 ± 1 kg/m3
- mass density (305.15 K, m1 = 0.3989): 1011.99 ± 1.1 kg/m3
- mass density (305.15 K, m1 = 0.5002): 1016.3 ± 1.1 kg/m3
- mass density (305.15 K, m1 = 0.5982): 1020.46 ± 1.1 kg/m3
- mass density (305.15 K, m1 = 0.6471): 1022.54 ± 1.2 kg/m3
- mass density (305.15 K, m1 = 0.7007): 1024.82 ± 1.2 kg/m3
- mass density (305.15 K, m1 = 0.7476): 1026.81 ± 1.2 kg/m3
- mass density (305.15 K, m1 = 0.7854): 1028.42 ± 1.2 kg/m3
- speed of sound (310.15 K, m1 = 0.09989): 1530.7 ± 1.5 m/s
- speed of sound (310.15 K, m1 = 0.1997): 1537.5 ± 1.5 m/s
- speed of sound (310.15 K, m1 = 0.2989): 1544.6 ± 1.6 m/s
- speed of sound (310.15 K, m1 = 0.3989): 1551.1 ± 1.6 m/s
- speed of sound (310.15 K, m1 = 0.5002): 1558.1 ± 1.7 m/s
- speed of sound (310.15 K, m1 = 0.5982): 1564.8 ± 1.7 m/s
- speed of sound (310.15 K, m1 = 0.6471): 1567.9 ± 1.8 m/s
- speed of sound (310.15 K, m1 = 0.7007): 1571.7 ± 1.8 m/s
- speed of sound (310.15 K, m1 = 0.7476): 1575.1 ± 1.9 m/s
- speed of sound (310.15 K, m1 = 0.7854): 1577.8 ± 1.8 m/s
- mass density (310.15 K, m1 = 0.09989): 997.513 ± 1 kg/m3
- mass density (310.15 K, m1 = 0.1997): 1001.69 ± 1 kg/m3
- mass density (310.15 K, m1 = 0.2989): 1005.85 ± 1 kg/m3
- mass density (310.15 K, m1 = 0.3989): 1010.04 ± 1.1 kg/m3
- mass density (310.15 K, m1 = 0.5002): 1014.29 ± 1.1 kg/m3
- mass density (310.15 K, m1 = 0.5982): 1018.39 ± 1.1 kg/m3
- mass density (310.15 K, m1 = 0.6471): 1020.44 ± 1.2 kg/m3
- mass density (310.15 K, m1 = 0.7007): 1022.69 ± 1.2 kg/m3
- mass density (310.15 K, m1 = 0.7476): 1024.65 ± 1.2 kg/m3
- mass density (310.15 K, m1 = 0.7854): 1026.23 ± 1.3 kg/m3
- speed of sound (315.15 K, m1 = 0.09989): 1538.9 ± 1.5 m/s
- speed of sound (315.15 K, m1 = 0.1997): 1545.4 ± 1.5 m/s
- speed of sound (315.15 K, m1 = 0.2989): 1552 ± 1.6 m/s
- speed of sound (315.15 K, m1 = 0.3989): 1559 ± 1.6 m/s
- speed of sound (315.15 K, m1 = 0.5002): 1566 ± 1.7 m/s
- speed of sound (315.15 K, m1 = 0.5982): 1573.1 ± 1.7 m/s
- speed of sound (315.15 K, m1 = 0.6471): 1576.5 ± 1.8 m/s
- speed of sound (315.15 K, m1 = 0.7007): 1580.1 ± 1.8 m/s
- speed of sound (315.15 K, m1 = 0.7476): 1583.3 ± 1.8 m/s
- speed of sound (315.15 K, m1 = 0.7854): 1585.9 ± 1.9 m/s
- mass density (315.15 K, m1 = 0.09989): 995.687 ± 1 kg/m3
- mass density (315.15 K, m1 = 0.1997): 999.928 ± 1 kg/m3
- mass density (315.15 K, m1 = 0.2989): 1004.15 ± 1 kg/m3
- mass density (315.15 K, m1 = 0.3989): 1008.4 ± 1.1 kg/m3
- mass density (315.15 K, m1 = 0.5002): 1012.7 ± 1.1 kg/m3
- mass density (315.15 K, m1 = 0.5982): 1016.87 ± 1.1 kg/m3
- mass density (315.15 K, m1 = 0.6471): 1018.94 ± 1.2 kg/m3
- mass density (315.15 K, m1 = 0.7007): 1021.22 ± 1.2 kg/m3
- mass density (315.15 K, m1 = 0.7476): 1023.22 ± 1.2 kg/m3
- mass density (315.15 K, m1 = 0.7854): 1024.82 ± 1.2 kg/m3

SMILES: CN(C)C(=N)NC(=N)N.Cl [N,N-dimethylimidodicarbonimidic diamide hydrochloride] + O
- speed of sound (305.15 K, m1 = 0.03): 1516.5 ± 1.6 m/s
- speed of sound (305.15 K, m1 = 0.045): 1518 ± 1.6 m/s
- speed of sound (305.15 K, m1 = 0.06): 1519.3 ± 1.5 m/s and 1519.3 ± 1.6 m/s
- speed of sound (305.15 K, m1 = 0.09): 1522 ± 1.6 m/s
- mass density (305.15 K, m1 = 0.03): 996.159 ± 1 kg/m3
- mass density (305.15 K, m1 = 0.045): 996.716 ± 1 kg/m3
- mass density (305.15 K, m1 = 0.06): 997.319 ± 1 kg/m3
- mass density (305.15 K, m1 = 0.09): 998.393 ± 1 kg/m3
- speed of sound (310.15 K, m1 = 0.03): 1526.3 ± 1.6 m/s
- speed of sound (310.15 K, m1 = 0.045): 1527.7 ± 1.6 m/s
- speed of sound (310.15 K, m1 = 0.06): 1529 ± 1.6 m/s
- speed of sound (310.15 K, m1 = 0.09): 1531.5 ± 1.6 m/s
- mass density (310.15 K, m1 = 0.03): 994.44 ± 1 kg/m3
- mass density (310.15 K, m1 = 0.045): 994.953 ± 1 kg/m3
- mass density (310.15 K, m1 = 0.06): 995.586 ± 1 kg/m3
- mass density (310.15 K, m1 = 0.09): 996.654 ± 1 kg/m3
- speed of sound (315.15 K, m1 = 0.03): 1534.4 ± 1.6 m/s
- speed of sound (315.15 K, m1 = 0.045): 1535.9 ± 1.6 m/s
- speed of sound (315.15 K, m1 = 0.06): 1537.2 ± 1.6 m/s
- speed of sound (315.15 K, m1 = 0.09): 1539.6 ± 1.6 m/s
- mass density (315.15 K, m1 = 0.03): 992.549 ± 1 kg/m3
- mass density (315.15 K, m1 = 0.045): 993.115 ± 1 kg/m3
- mass density (315.15 K, m1 = 0.06): 993.681 ± 1 kg/m3
- mass density (315.15 K, m1 = 0.09): 994.744 ± 1 kg/m3

SMILES: O [water] + CN(C)C(=N)NC(=N)N.Cl
- speed of sound (305.15 K, m2 = 0): 1513.7 ± 1.6 m/s
- mass density (305.15 K, m2 = 0): 995.038 ± 1 kg/m3
- speed of sound (310.15 K, m2 = 0): 1523.6 ± 1.6 m/s
- mass density (310.15 K, m2 = 0): 993.328 ± 1 kg/m3
- speed of sound (315.15 K, m2 = 0): 1532.1 ± 1.6 m/s
- mass density (315.15 K, m2 = 0): 991.439 ± 1 kg/m3

SMILES: O [water] + C[C@@H](O)[C@H](N)C(=O)O
- speed of sound (305.15 K, m2 = 0): 1513.7 ± 1.6 m/s
- mass density (305.15 K, m2 = 0): 995.038 ± 1 kg/m3
- speed of sound (310.15 K, m2 = 0): 1523.6 ± 1.6 m/s
- mass density (310.15 K, m2 = 0): 993.328 ± 1 kg/m3
- speed of sound (315.15 K, m2 = 0): 1532.1 ± 1.6 m/s
- mass density (315.15 K, m2 = 0): 991.439 ± 1 kg/m3

SMILES: O [water] + N[C@@H](CO)C(=O)O
- speed of sound (305.15 K, m2 = 0): 1513.7 ± 1.6 m/s
- mass density (305.15 K, m2 = 0): 995.038 ± 1 kg/m3
- speed of sound (310.15 K, m2 = 0): 1523.6 ± 1.6 m/s
- mass density (310.15 K, m2 = 0): 993.328 ± 1 kg/m3
- speed of sound (315.15 K, m2 = 0): 1532.1 ± 1.6 m/s
- mass density (315.15 K, m2 = 0): 991.439 ± 1 kg/m3
